Measured values as given in PMC6121034 (Frontiers in Cellular Neuroscience, 2018).

Assays:
Format in all cases: cell-based
[1] = target: T1, α1β2γ2 GABAA receptor (α1 subunit), ALA mutant (Rattus norvegicus, UniProt P18508+P62813+P63138, P62813:F91A); experiment: whole-cell patch clamp, currents evoked by […] GABA; set-up: dose or concentration left out as unconfirmed
T1 construct: gene Gabra1; rat α1/β2/γ2L subunits expressed in HEK-293 cells; with GABAA receptor β2 (Gabrb2) and γ2L (Gabrg2) subunits
T1 sequence (P62813 28-455 F91A): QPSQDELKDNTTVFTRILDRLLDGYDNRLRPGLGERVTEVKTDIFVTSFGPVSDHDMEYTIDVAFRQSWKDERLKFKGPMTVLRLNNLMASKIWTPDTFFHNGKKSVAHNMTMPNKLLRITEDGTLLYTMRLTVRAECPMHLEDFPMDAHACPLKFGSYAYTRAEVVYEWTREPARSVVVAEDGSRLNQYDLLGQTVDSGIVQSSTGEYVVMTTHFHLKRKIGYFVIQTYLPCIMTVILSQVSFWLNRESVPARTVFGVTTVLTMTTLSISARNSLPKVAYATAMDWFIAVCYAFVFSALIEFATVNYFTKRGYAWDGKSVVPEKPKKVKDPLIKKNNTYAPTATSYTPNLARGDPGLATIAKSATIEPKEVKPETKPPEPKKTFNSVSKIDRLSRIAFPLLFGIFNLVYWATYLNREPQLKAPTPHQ
T1 sequence (P63138 26-474): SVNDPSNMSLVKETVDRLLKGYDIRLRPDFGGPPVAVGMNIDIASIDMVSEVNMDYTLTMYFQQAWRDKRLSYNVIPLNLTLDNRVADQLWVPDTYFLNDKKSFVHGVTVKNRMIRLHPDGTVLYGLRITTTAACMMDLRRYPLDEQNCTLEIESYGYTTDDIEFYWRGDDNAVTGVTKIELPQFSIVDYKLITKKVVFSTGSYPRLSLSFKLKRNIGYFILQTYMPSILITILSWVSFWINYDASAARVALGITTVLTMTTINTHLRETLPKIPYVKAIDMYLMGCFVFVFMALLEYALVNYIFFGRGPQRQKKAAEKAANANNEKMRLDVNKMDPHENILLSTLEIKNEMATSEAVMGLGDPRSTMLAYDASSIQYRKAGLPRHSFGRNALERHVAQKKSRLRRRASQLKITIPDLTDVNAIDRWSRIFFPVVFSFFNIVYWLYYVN
T1 sequence (P18508 39-466): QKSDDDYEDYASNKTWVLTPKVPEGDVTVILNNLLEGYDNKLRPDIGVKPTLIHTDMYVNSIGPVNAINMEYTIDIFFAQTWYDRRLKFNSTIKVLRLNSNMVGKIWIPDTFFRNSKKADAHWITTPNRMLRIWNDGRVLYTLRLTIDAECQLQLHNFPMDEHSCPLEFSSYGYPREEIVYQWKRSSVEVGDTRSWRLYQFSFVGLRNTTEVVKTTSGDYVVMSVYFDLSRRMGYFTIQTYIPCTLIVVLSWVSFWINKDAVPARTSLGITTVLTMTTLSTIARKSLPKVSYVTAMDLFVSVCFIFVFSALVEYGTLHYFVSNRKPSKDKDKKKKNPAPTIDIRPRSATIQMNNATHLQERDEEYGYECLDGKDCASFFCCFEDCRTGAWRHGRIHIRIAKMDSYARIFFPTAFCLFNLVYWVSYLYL

[2] = target: T2, α1β2γ2 GABAA receptor (α1 subunit), LEU mutant (Rattus norvegicus, UniProt P18508+P62813+P63138, P62813:F91L); experiment: whole-cell patch clamp, currents evoked by […] GABA
T2 construct: gene Gabra1; rat α1/β2/γ2L subunits expressed in HEK-293 cells; with GABAA receptor β2 (Gabrb2) and γ2L (Gabrg2) subunits
T2 sequence (P62813 28-455 F91L): as the sequence (P62813 28-455 F91A) above, with A64L counted along it
T2 sequence (P63138 26-474): as the sequence (P63138 26-474) above
T2 sequence (P18508 39-466): as the sequence (P18508 39-466) above

[3] = target: T3, α1β2γ2 GABAA receptor (α1 subunit) (Rattus norvegicus, UniProt P18508+P62813+P63138); experiment: whole-cell patch clamp dose-response, partial agonist
T3 construct: gene Gabra1; rat α1/β2/γ2L subunits expressed in HEK-293 cells; with GABAA receptor β2 (Gabrb2) and γ2L (Gabrg2) subunits
T3 sequence (P62813 28-455): as the sequence (P62813 28-455 F91A) above, with A64F counted along it
T3 sequence (P63138 26-474): as the sequence (P63138 26-474) above
T3 sequence (P18508 39-466): as the sequence (P18508 39-466) above

NCCCC(=O)O [GABA]
whole-cell patch clamp, currents evoked by GABA [1]: Typical traces of current responses to saturating [GABA] application (black traces) | whole-cell patch clamp, currents evoked by 100 mM GABA [2]: Typical traces of current responses to saturating [GABA] application (black traces)

O=S(=O)(O)C1CCNCC1 [P4S, piperidine-4-sulfonic acid]
EC50 [3]: 46 µM
